Assay results: patent publication US20240124434A1, “ATF6 INHIBITORS AND USES THEREOF” (Altos Labs, Inc., priority 2018, published 2024)
≈ marks a conversion by molar mass, not a printed value. Like-named read-outs stand apart in the source and are kept apart here.

Tests used:
[1] = test system: ATF6; test: ERSE ATF6-luciferase reporter assay (thapsigargin-induced ER stress); format: cell-based, human; details: Homo sapiens, U2OS, thapsigargin-induced ER stress, U2-OS ATF6 luc reporter cells; for inhibition at 1 µM: 8 h, 8 hr
[2] = In vitro microsomal stability, human liver microsomes; format: in vitro ADME; details: for half-life at 1 μM / half-life at […], 1 µM: human, read-out: T1/2 @ hLM; for Rem. @ hLM (%): remaining fraction after 30 min, 1 μM compound, 0.5 mg/mL human liver microsomes, 1 mM NADPH
Procedure: (§1) Compounds were incubated at a final concentration of 1 μM with 0.5 mg/mL human liver microsomes (hLM) (#HMMCPL; Thermo), mouse liver microsomes (mLM) (#MSMCPL; Thermo) or rat liver microsomes (rLM) (#RTMCPL; Thermo) and 1 mM reduced dihydronicotinamide-adenine dinucleotide phosphate (NADPH) (#N1630; Sigma) in 100 mM phosphate buffer (pH 7.4) at 37° C. The reactions were terminated at 0, 5, 15 and 30 min by the addition of cold acetonitrile containing 50 ng/mL propranolol as an internal standard. […] Verapamil hydrochloride (#V4369 Aldrich) was used as a positive control in all studies.

[3] = In vitro microsomal stability, mouse liver microsomes; format: in vitro ADME; details: for half-life at 1 μM / half-life at […], 1 µM: mouse, read-out: T1/2 @ mLM; for Rem. @ mLM (%): remaining fraction after 30 min, 1 μM compound, 0.5 mg/mL mouse liver microsomes, 1 mM NADPH
Procedure: as §1

[4] = In vitro microsomal stability, rat liver microsomes; format: in vitro ADME; details: for microsomal CLint at 1 μM / half-life at 1 μM / microsomal CLint at […], 1 µM / half-life at […], 1 µM: pH 7.4, rat liver microsomes; for microsomal CLint at 1 μM / microsomal CLint at […], 1 µM: intrinsic clearance, read-out: Clint @ rLM; for half-life at 1 μM / half-life at […], 1 µM: rat, read-out: T1/2 @ rLM; for Rem. @ rLM (%): remaining fraction after 30 min, 1 μM compound, 0.5 mg/mL rat liver microsomes, 1 mM NADPH
Procedure: as §1

[5] = Kinetic solubility (nephelometry); format: physicochemical; details: aqueous buffer, kinetic from dmso stock; PBS pH 7.4, 1% DMSO, 1 hour at 37° C., light scattering at 625 nm
Procedure: Concentration (μM) was then calculated by segmental regression. Amiodarone (#A8423 Aldrich) was used as positive control.

[6] = 1 μM test compound, read-out: Inh. ATF6-Luc @ 1 μM [%]
[7] = dose-response 30 μM to 1 nM, read-out: IC50 ATF6-Luc reporter
[8] = pH 7.4, intrinsic clearance, human liver microsomes, read-out: Clint @ hLM
[9] = pH 7.4, intrinsic clearance, mouse liver microsomes, read-out: Clint @ mLM
[10] = read-out: Inh. ATF6-Luc @ 1 μM [%], 1 μM test compound
[11] = read-out: IC50 ATF6-Luc reporter [μM], dose-response 30 μM to 1 nM

SMILES	inhibition at 1 µM [1, 6]	IC50 [1, 7]	half-life at 1 μM ([2]; human liver microsomes, pH 7.4)	microsomal CLint at 1 μM [2, 8]	Rem. @ hLM (%) [2]	half-life at 1 μM ([3]; mouse liver microsomes, pH 7.4)	microsomal CLint at 1 μM [3, 9]	Rem. @ mLM (%) [3]	microsomal CLint at 1 μM [4]	half-life at 1 μM [4]	Rem. @ rLM (%) [4]	solubility kinetic at 1 h [5]	microsomal CLint at […], 1 µM [2, 8]	half-life at […], 1 µM ([3]; mouse liver microsomes, pH 7.4)	microsomal CLint at […], 1 µM [3, 9]	microsomal CLint at […], 1 µM [4]	half-life at […], 1 µM [4]	inhibition at 1 µM [1, 10]	IC50 [1, 11]	half-life at […], 1 µM ([2]; human liver microsomes, pH 7.4)
CCC(c1ccc(C(F)(F)F)cc1C(F)(F)F)n1cc(NC(=O)c2cc(-c3ccccn3)on2)cn1 (stereo not shown) [Compound 1, N-(1-(1-(2,4-bis(trifluoromethyl)phenyl)propyl)-1H-pyrazol-4-yl)-5-(pyridin-2-yl)isoxazole-3-carboxamide]	25 to 50%	< 1 µM	67.7 min	20.5 µL/min/mg	71.4%	35.1 min	39.5 µL/min/mg	54.8%	42.7 µL/min/mg	32.4 min	51.8%	2.7 µM (≈ 1.38 µg/mL)	–	–	–	–	–	–	–	–
CC(c1ccc(C(F)(F)F)cc1C(F)(F)F)n1cc(NC(=O)c2cc(-c3cccs3)on2)cn1 (stereo not shown) [Compound 9, N-(1-(1-(2,4-bis(trifluoromethyl)phenyl)-ethyl)-1H-pyrazol-4-yl)-5-(thiophen-2-yl)isoxazole-3-carboxamide]	< 25%	1 to 10 µM	–	–	–	–	–	–	–	–	–	8.9 µM (≈ 4.45 µg/mL)	–	–	–	–	–	–	–	–
CC(c1ccc(C(F)(F)F)cc1C(F)(F)F)n1cc(NC(=O)c2cc(-c3ccco3)on2)cn1 (stereo not shown) [Compound 12, N-(1-{1-[2,4-bis(trifluoromethyl)phenyl]ethyl}-1H-pyrazol-4-yl)-5-(furan-2-yl) isoxazole-3-carboxamide]	> 50%	< 1 µM	29.9 min	–	46.1%	–	–	1.02%	–	–	0.77%	–	46 µL/min/mg	4.6 min	302 µL/min/mg	291 µL/min/mg	4.8 min	–	–	–
O=C(Nc1cnn(Cc2ccc(C(F)(F)F)cc2C(F)(F)F)c1)c1cc(-c2cccs2)on1 [Compound 14, N-(1-(2,4-bis(trifluoromethyl)benzyl)-1H-pyrazol-4-yl)-5-(thiophen-2-yl)isoxazole-3-carboxamide]	25 to 50%	< 1 µM	32.1 min	–	50.1%	7.4 min	–	5.62%	–	–	0.85%	35.2 µM (≈ 17.1 µg/mL)	43 µL/min/mg	–	187 µL/min/mg	314 µL/min/mg	4.4 min	–	–	–
O=C(Nc1cnn(C2CCc3ccccc32)c1)c1cc(-c2ccco2)on1 (stereo not shown) [Compound 19, N-(1-(2,3-dihydro-1H-inden-1-yl)-1H-pyrazol-4-yl)-5-(furan-2-yl) isoxazole-3-carboxamide]	< 25%	> 10 µM	–	–	–	–	–	–	–	–	–	9.37 µM (≈ 3.38 µg/mL)	–	–	–	–	–	–	–	–
Cc1ccc(-c2cc(C(=O)Nc3cnn(Cc4ccc(C(F)(F)F)cc4C(F)(F)F)c3)no2)o1 [Compound 22, N-(1-(2,4-bis(trifluoromethyl)benzyl)-1H-pyrazol-4-yl)-5-(5-methylfuran-2-yl)isoxazole-3-carboxamide]	< 25%	1 to 10 µM	6.5 min	–	3.7%	–	–	3.3%	–	–	4.5%	–	212 µL/min/mg	6.1 min	228 µL/min/mg	204 µL/min/mg	6.8 min	–	–	–
Cc1c(NC(=O)c2cc(-c3ccccn3)on2)cnn1[C@H](C)c1ccc(C(F)(F)F)cc1C(F)(F)F [Compound 97, (R)—N-(1-(1-(2,4-bis(trifluoromethyl)phenyl)ethyl)-5-methyl-1H-pyrazol-4-yl)-5-(pyridin-2-yl)isoxazole-3-carboxamide]	25 to 50%	1 to 10 µM	53.6 min	–	59.3%	26.6 min	–	44.5%	–	58.7 min	64.4%	2.92 µM (≈ 1.49 µg/mL)	25.9 µL/min/mg	–	52.2 µL/min/mg	23.6 µL/min/mg	–	–	–	–
Cc1nn([C@@H](C)c2ccc(C(F)(F)F)cc2C(F)(F)F)cc1NC(=O)c1cc(-c2ccccn2)on1 [Compound 100, (S)—N-(1-(1-(2,4-bis(trifluoromethyl)phenyl)ethyl)-3-methyl-1H-pyrazol-4-yl)-5-(pyridin-2-yl)isoxazole-3-carboxamide]	–	–	38.2 min	–	53.3%	–	–	34.3%	–	41.5 min	51.4%	4.68 µM (≈ 2.38 µg/mL)	36.2 µL/min/mg	19.1 min	72.6 µL/min/mg	33.4 µL/min/mg	–	> 50%	< 1 µM	–
C[C@H](c1ccc(C(F)(F)F)cc1C(F)(F)F)n1cc(NC(=O)c2cc(-c3ncccn3)on2)cn1 [Compound 101, (R)—N-(1-(1-(2,4-bis(trifluoromethyl)phenyl)ethyl)-1H-pyrazol-4-yl)-5-(pyrimidin-2-yl)isoxazole-3-carboxamide]	> 50%	< 1 µM	36 min	–	52.49%	36.7 min	–	51.17%	–	49.1 min	60.62%	2.34 µM (≈ 1.16 µg/mL)	38.5 µL/min/mg	–	37.7 µL/min/mg	28.2 µL/min/mg	–	–	–	–
CN(C(=O)c1cc(-c2ccccn2)on1)c1cnn(Cc2ccc(C(F)(F)F)cc2C(F)(F)F)c1 [Compound 103, N-(1-(2,4-bis(trifluoromethyl)benzyl)-1H-pyrazol-4-yl)-N-methyl-5-(pyridin-2-yl)isoxazole-3-carboxamide]	25 to 50%	1 to 10 µM	–	–	2.1%	–	–	0.94%	191 µL/min/mg	7.24 min	5.24%	9.37 µM (≈ 4.64 µg/mL)	258 µL/min/mg	5.12 min	271 µL/min/mg	–	–	–	–	5.38 min
C[C@H](c1ccc(C(F)(F)F)cc1C(F)(F)F)n1cc(NC(=O)c2cnc(-c3ccccn3)s2)cn1 [Compound 104, (R)—N-(1-(1-(2,4-bis(trifluoromethyl)phenyl)ethyl)-1H-pyrazol-4-yl)-2-(pyridin-2-yl)thiazole-5-carboxamide]	–	–	–	–	76.44%	–	–	83.18%	3.32 µL/min/mg	418 min	92.9%	2.34 µM (≈ 1.2 µg/mL)	18.9 µL/min/mg	108 min	12.9 µL/min/mg	–	–	25 to 50%	1 to 10 µM	73.2 min
C[C@H](c1ccc(F)cc1C(F)(F)F)n1cc(NC(=O)c2cc(-c3ccccn3)on2)cn1 [Compound 110, (R)—N-(1-(1-(4-fluoro-2-(trifluoromethyl)phenyl)ethyl)-1H-pyrazol-4-yl)-5-(pyridin-2-yl)isoxazole-3-carboxamide]	25 to 50%	1 to 10 µM	27 min	–	39.72%	14.2 min	–	20.03%	–	48.3 min	60.99%	4.68 µM (≈ 2.08 µg/mL)	51.3 µL/min/mg	–	97.7 µL/min/mg	28.7 µL/min/mg	–	–	–	–
